{"source": "ChEMBL document CHEMBL5725509", "about": "“Substituted pyrido[3,4-b]pyrazines as GPR6 modulators” (2017)", "molecular_target": "G-protein coupled receptor 6 (Homo sapiens, UniProt P46095)", "sequence (P46095 whole entry)": "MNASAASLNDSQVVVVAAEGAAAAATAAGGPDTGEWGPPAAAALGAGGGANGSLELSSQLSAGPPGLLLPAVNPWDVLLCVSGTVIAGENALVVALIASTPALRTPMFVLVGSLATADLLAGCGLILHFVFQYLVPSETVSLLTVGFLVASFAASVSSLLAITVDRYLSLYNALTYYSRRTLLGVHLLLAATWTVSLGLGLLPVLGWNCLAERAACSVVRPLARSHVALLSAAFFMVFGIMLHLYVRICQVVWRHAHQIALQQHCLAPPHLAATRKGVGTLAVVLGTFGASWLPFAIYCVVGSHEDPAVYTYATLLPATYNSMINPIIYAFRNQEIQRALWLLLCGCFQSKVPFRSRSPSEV", "assay": "cAMP assay A.1: This cell based assay measures the ability of compounds to inhibit the constitutive cAMP activity of GPR6 receptor expressed in CHO-K1 cells. CHO cells were stably expressed with GPR6 receptor, whose expression is controlled by a tetracycline inducable element. The cells were cultured in medium containing F12K, 10% FBS, 1% Penn/Strep, 200 ug/mL Hygromycin. GPR6 receptor expression was induced for 20 hrs with 1 μg/ml doxycycline (sigma D9891) in growth media. After addition of doxycycline cells were plated at a density of 250-500 cells per well in half-volume black clear bottom plates (Costar) and place in an incubator (37°, 5% C(O)2) for 20 hours prior to cAMP assays. Culture media was removed from cells and they were washed with 50 μL of Ringer's Buffer (MgCl2 0.047 mg/mL, NaH2PO4 0.18 mg/mL, Na2HPO4 0.1 mg/mL, KCl 0.34 mg/mL, NaHC(O)3 1.26 mg/mL, D-glucose 1.8 mg/mL, NaCl 7 mg/mL; pH=7.4). Compounds suspended in DMSO were diluted in Ringer's Buffer containing 0.5% fatty acid free BSA and incubated on cells for 45 min at 37° and 5% C(O)2. After incubation cells were incubated for 10 min at room temp with Eu-cAMP tracer solution from a Perkin Elmer Lance HTRF UltracAMP assay kit (TRF0264). Then ULight-anti-cAMP solution from the Lance HTRF kit was added and incubated on a shaker at room temp for 1 hour prior to HTRF detection in a BMG PolarStar Omega. […]"}
{"smiles": "CN1CCc2nc(N3CCC(Oc4ccc(F)cc4F)CC3)c(NCC(F)F)nc2C1", "values": [{"measurement": "IC50", "result": "> 1000", "unit": "µM"}]}
{"smiles": "CC(=O)N1CCc2nc(N3CCN(C(=O)OC(C)(C)C)CC3)c(NC(C)C)nc2C1", "values": [{"measurement": "IC50", "result": "> 1000", "unit": "µM"}]}
